Where two headings read alike, the source gives them in different places.

Holding throughout (assay): Test B pre-/postemergence plant response
What all share (assay type): in vivo

The subject of experiment [1] is pigweed (Amaranthus retroflexus). The conditions noted are these: Amaranthus retroflexus, 240 h, read-out: Plant response rating, Pigweed; for pest or weed control at 125 g/ha: 125 g ai/ha; for pest or weed control at 500 g/ha: 500 g ai/ha. The gist of the method:
(§1)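 Evaluation is visual, about 10 days after application, rating injury from 0 (none) to 100 (complete control) relative to untreated controls. Application was a preemergence soil spray on seeded pots or a postemergence spray on one- to two-leaf plants.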

Experiment [2] deals with barnyardgrass (Echinochloa crus-galli). Conditions: Echinochloa crus-galli, 240 h, read-out: Plant response rating, Barnyardgrass; for pest or weed control at 125 g/ha: 125 g ai/ha; for pest or weed control at 500 g/ha: 500 g ai/ha. The gist of the method:
as §1

Experiment [3] relates to wheat (Triticum aestivum). Conditions: Triticum aestivum, 240 h, read-out: Plant response rating, Wheat; for plant injury at 125 g/ha: 125 g ai/ha; for plant injury at 500 g/ha: 500 g ai/ha. The gist of the method: as §1
For experiment [4], the system named is giant foxtail (Setaria faberii). Conditions: Setaria faberi, 240 h, read-out: Plant response rating, Foxtail, Giant; for pest or weed control at 125 g/ha: 125 g ai/ha; for pest or weed control at 500 g/ha: 500 g ai/ha. In a few lines: as §1
Experiment [5] concerns corn (Zea mays). Conditions: Zea mays, 240 h; for Corn plant response rating (crop injury, 0 = no effect, 100 = complete kill) at 125 g/ha: 125 g ai/ha; for Corn plant response rating (crop injury, 0 = no effect, 100 = complete kill) at 500 g/ha: 500 g ai/ha. In a few lines: as §1
Setting [6] is: post-emergence, postemergence, 0 to 100 scale, 0 no effect, 100 complete control.
[7] abbreviates: post-emergence, Postemergence, 0 to 100 scale (0 no effect, 100 complete control).
The mark [8] stands for this setting: pre-emergence, Preemergence, 0 to 100 scale where 0 is no effect and 100 is complete control.

As for `FC(F)(F)Oc1ccc(-c2ccccc2Oc2ncc(Cl)cn2)cc1` [Compound 42, 5-chloro-2-[[4′-(trifluoromethoxy)[1,1′-biphenyl]-2-yl]oxy]pyrimidine], the pest or weed control at 125 g/ha in experiment [1] (setting [6]) turned out to be 60%; in experiment [1] (setting [8]), 50%; in experiment [2] (setting [6]), 20%; in experiment [2] (setting [8]), 20%; in experiment [4] (setting [6]), 10%; in experiment [4] (setting [8]), 70%. The pest or weed control at 500 g/ha is 80% in experiment [1] (setting [7]); 90% in experiment [1] (setting [8]); 30% in experiment [2] (setting [7]); 70% in experiment [2] (setting [8]); 30% in experiment [4] (setting [7]); 100% in experiment [4] (setting [8]). Also, the plant injury at 125 g/ha in experiment [3] (setting [6]) and in experiment [3] (setting [8]) was 0% throughout. In addition, the plant injury at 500 g/ha in experiment [3] (setting [7]) and in experiment [3] (setting [8]) was 0% throughout. For the same compound, the results for the Corn plant response rating (crop injury, 0 = no effect, 100 = complete kill) at 125 g/ha in experiment [5] (setting [6]) and in experiment [5] (setting [8]) were 20% and 0%, respectively. For the same compound, the Corn plant response rating (crop injury, 0 = no effect, 100 = complete kill) at 500 g/ha in experiment [5] (setting [7]) stood at 20%; in experiment [5] (setting [8]), 0%.

These data come from patent publication US10131652B2, “Pyrimidinyloxy benzene derivatives as herbicides” (E. I. DU PONT DE NEMOURS AND COMPANY, priority 2014, dated 2018).
